Consider ten compounds from ChEMBL document CHEMBL1201862, “PubChem BioAssay data set” (2004).

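96-well plates; 48 h exposure; 5 concentrations. Endpoints by linear interpolation between flanking doses. Not reached: highest tested concentration assigned. GI50 is the concentration that inhibits growth by half.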 Active and inactive are the calls of the source. Rule as the data show it: active = GI50 up to about 1.1 µM and inactive = higher.

What all share (experiment): inhibition of tumour cell growth, NCI panel, 48 h
The test system of assay [1] is RXF 393.
Assay [2] relates to CAKI-1.
Assay [3] concerns UACC-62.
Assay [4] deals with SR.
The subject of assay [5] is NCI-H522.
Assay [6] concerns OVCAR-4.
Assay [7] has as its system HOP-92.
Assay [8] relates to OVCAR-3.
Assay [9] deals with DU-145.
The subject of assay [10] is T47D.
Assay [11] deals with HOP-62.
Assay [12] relates to MCF7.
For assay [13], the system named is MDA-MB-231.
The subject of assay [14] is OVCAR-8.
Assay [15] deals with LOX IMVI.
In assay [16] the test system is SK-MEL-2.
In assay [17] the test system is PC-3.
Assay [18] relates to UO-31.
Assay [19] relates to TK-10.
Assay [20] relates to BT-549.

Take `CC1(C)[C@@H]2CC[C@@]1(C)C1(S[S+]1[O-])C21Cc2ccccc2C1` (some centres not stated): the GI50 in assay [1] was 18.5 µM (inactive); in assay [2], 20.4 µM (inactive); in assay [3], 22.2 µM (inactive); in assay [4], 14.5 µM (inactive); in [5], 15.8 µM (inactive); in assay [6], 15.6 µM (inactive). In addition, the GI50 is 23.3 µM (inactive) in [7]; 31.7 µM (inactive) in assay [8]; 21.3 µM (inactive) in assay [9]; 21.6 µM (inactive) in assay [10]; 81.1 µM (inactive) in assay [11]; 22.1 µM (inactive) in assay [12]. For the same compound, the GI50 in [13] was 17.3 µM (inactive); in assay [14], 17.3 µM (inactive); in assay [15], 15.1 µM (inactive); in assay [16], 17.2 µM (inactive); in assay [17], 17.9 µM (inactive); in assay [18], 21.4 µM (inactive). Further, the GI50 in assay [19] was 18.8 µM (inactive); in assay [20] it was 32.1 µM (inactive).
For the compound `Nc1cccc(-c2cc(O)c3cc4c(cc3n2)OCO4)c1`, the GI50 was 1.02 µM (active) in [1]; 3.68 µM (inactive) in assay [2]; 0.402 µM (active) in assay [3]; 0.191 µM (active) in [4]; 0.273 µM (active) in assay [5]; > 61.9 µM (inactive) in assay [6]. In addition, the GI50 in assay [7] is 1.02 µM (active); in [8], 0.188 µM (active); in [9], 0.64 µM (active); in assay [10], > 100 µM (inactive); in assay [11], 1.87 µM (inactive); in [12], 0.592 µM (active). Also, the GI50 in assay [13] was 1.73 µM (inactive); in assay [14] it was 2.11 µM (inactive); in assay [15], 1.23 µM (inactive); in [16], 0.45 µM (active); in assay [17], 0.644 µM (active); in assay [18], 12.5 µM (inactive). Moreover, the figures for the GI50 in assay [19] and in [20] were 6.64 µM (inactive) and > 100 µM (inactive), respectively.
For `CC1C=C(NCC2(CO)CCC2)N=C(N)N1` (configuration not stated), the GI50 in assay [1], in assay [2], in assay [3], in assay [4], in [5] and in assay [6] was > 100 µM (inactive) throughout. Besides, the GI50 in assay [7], in assay [8], in assay [9], in [10], in assay [11] and in assay [12] was > 100 µM (inactive) each time. Further, the GI50 in assay [13], in assay [14], in [15], in assay [16], in assay [17] and in [18] was > 100 µM (inactive) in each case. Also, the GI50 in assay [20] was > 100 µM (inactive).
Consider `CCC1CC2CN3CCc4c([nH]c5c(-c6c(OC)ccc7c8c([nH]c67)[C@]6(C(=O)OC)CC7CC(CC)C6N(CC8)C7)c(O)ccc45)[C@](C(=O)OC)(C2)C13` (some centres not stated), for which the GI50 in assay [1] was 12.2 µM (inactive); in [2], 12.6 µM (inactive); in [3], 14.3 µM (inactive); in [4], 13.3 µM (inactive); in [5], 15.7 µM (inactive); in assay [7], 12.9 µM (inactive). Also, the GI50 was 14.6 µM (inactive) in [8]; 14.9 µM (inactive) in assay [9]; 11.1 µM (inactive) in assay [10]; 15.2 µM (inactive) in [11]; 6.82 µM (inactive) in assay [12]; 21.6 µM (inactive) in assay [13]. Further, the GI50 in assay [14] was 20.5 µM (inactive); in assay [15] it was 14.8 µM (inactive); in [16], 20.9 µM (inactive); in [17] it was 13.6 µM (inactive); in assay [18], 12.7 µM (inactive); in assay [19], 15.2 µM (inactive). In addition, the GI50 in assay [20] was 17.3 µM (inactive).
With `O=S(=O)(O)/C(=N\c1cccc(Cc2ccccc2)c1)Nc1cccc(Cc2ccccc2)c1`, the GI50 in assay [1] is 16.4 µM (inactive); in assay [2], 42.5 µM (inactive); in assay [3] it was 16.5 µM (inactive); in assay [4], 21.9 µM (inactive); in assay [5], 14.9 µM (inactive); in assay [6], 19.5 µM (inactive). For the same compound, the GI50 in assay [7] was 14.9 µM (inactive); in assay [9], 17 µM (inactive); in assay [10], 15.8 µM (inactive); in assay [11] it was 32.6 µM (inactive); in assay [12], 19.2 µM (inactive); in assay [13] it was 17.8 µM (inactive). Further, the GI50 in assay [14] is 18.5 µM (inactive); in [15], 12.9 µM (inactive); in assay [16] it was 21.6 µM (inactive); in [17], 18.3 µM (inactive); in [18] it was 15.8 µM (inactive); in assay [19], 19.8 µM (inactive). Moreover, in assay [20], the GI50 was 17.7 µM (inactive).
As to `N#CCCN(CCC#N)c1ccc(C(/N=N/c2ccc(Cl)cc2)=N\c2ccccc2)cc1`, the GI50 in assay [1] was 15.4 µM (inactive); in assay [2], 12.2 µM (inactive); in assay [3], 6.49 µM (inactive); in [4], 16 µM (inactive); in assay [5] it was 15.1 µM (inactive); in assay [6], 11.6 µM (inactive). The GI50 was 16.4 µM (inactive) in [7]; 9.77 µM (inactive) in assay [8]; 13.4 µM (inactive) in [9]; 8.55 µM (inactive) in assay [10]; 13.2 µM (inactive) in assay [11]; 11.7 µM (inactive) in [12]. For the same compound, the GI50 in assay [13] is 18.1 µM (inactive); in assay [14], 15.1 µM (inactive); in assay [16], 2.09 µM (inactive); in assay [17], 12.6 µM (inactive); in [18], 8.91 µM (inactive); in assay [19] it was 15.5 µM (inactive). The GI50 in [20] was 3.33 µM (inactive).
With `Cc1c(C)c2c(c(N)c1C#N)C(=O)N(CCN1CCNCC1)C2=O`, the GI50 was 22.4 µM (inactive) in assay [1]; 42 µM (inactive) in assay [2]; 23.2 µM (inactive) in assay [3]; 25.6 µM (inactive) in assay [4]; 17.9 µM (inactive) in assay [5]; 40.2 µM (inactive) in [6]. Also, the GI50 in assay [7] was 25.2 µM (inactive); in assay [8], 33.3 µM (inactive); in assay [9], 29.4 µM (inactive); in assay [10] it was 36.4 µM (inactive); in assay [12], 34.8 µM (inactive); in assay [13], 19.3 µM (inactive). For the same compound, the GI50 is 30.8 µM (inactive) in assay [14]; 20.1 µM (inactive) in [15]; 35.9 µM (inactive) in assay [16]; 18.4 µM (inactive) in assay [17]; 28.6 µM (inactive) in assay [18]; 36.7 µM (inactive) in assay [19]. Further, the GI50 in [20] was 35.2 µM (inactive).
In the case of `NCC(O)CNCC/C=C\C/C=C\C/C=C\C/C=C\C/C=C\C/C=C\CCCCC/C=C\CCNCC(O)CN` (configuration not stated), the GI50 was 2.08 µM (inactive) in [2]; 1.79 µM (inactive) in assay [3]; 0.435 µM (active) in assay [4]; 1.53 µM (inactive) in assay [5]; 1.93 µM (inactive) in [6]; 2.01 µM (inactive) in [7]. The GI50 in [8] is 1.98 µM (inactive); in [9] it was 1.77 µM (inactive); in assay [10], 2 µM (inactive); in [11], 1.97 µM (inactive); in assay [12], 2.15 µM (inactive); in assay [13], 1.75 µM (inactive). In addition, the GI50 in assay [14] is 1.78 µM (inactive); in assay [15], 1.79 µM (inactive); in assay [16], 1.81 µM (inactive); in [17] it was 1.92 µM (inactive); in assay [18], 1.9 µM (inactive); in [19] it was 1.57 µM (inactive). Further, in assay [20], the GI50 is 2.94 µM (inactive).
Regarding `Clc1ccc(C(OCn2ccnc2)c2nc3ccccc3[nH]2)c(Cl)c1` (configuration not stated), the GI50 was 87.3 µM (inactive) in assay [2]; 35 µM (inactive) in assay [3]; > 10 µM (inactive) in assay [4]; 43.1 µM (inactive) in assay [5]; 16.6 µM (inactive) in [6]; 0.312 µM (active) in assay [7]. Also, the GI50 in assay [8] was 23.5 µM (inactive); in assay [9] it was 64.4 µM (inactive); in assay [10], 39.1 µM (inactive); in [11] it was 92.9 µM (inactive); in assay [12] it was 38.2 µM (inactive); in [13], 84.5 µM (inactive). Further, the GI50 in assay [14] was 52.8 µM (inactive); in assay [15], 32.4 µM (inactive); in assay [16] it was 42.7 µM (inactive); in [17] it was 35.2 µM (inactive); in [18], 23.7 µM (inactive); in assay [19] it was 31.7 µM (inactive). Moreover, the GI50 in [20] was 26.1 µM (inactive).
`O=C1CC(c2cccc([N+](=O)[O-])c2)C2(C(=O)NC(=S)NC2=O)C(c2cccc([N+](=O)[O-])c2)C1` (configuration not stated): the GI50 in assay [2] was 12.9 µM (inactive); in assay [3], 23.2 µM (inactive); in [4], 49.4 µM (inactive); in assay [5], 30 µM (inactive); in [6] it was 37.4 µM (inactive); in [7], 28.2 µM (inactive). Also, the GI50 in assay [8] was 35.2 µM (inactive); in assay [9] it was 34.1 µM (inactive); in assay [10] it was 81.3 µM (inactive); in assay [11] it was 30.3 µM (inactive); in assay [12] it was 26.8 µM (inactive); in [13], 16.6 µM (inactive). In addition, the GI50 is 21.2 µM (inactive) in assay [14]; 16.5 µM (inactive) in assay [15]; 35.9 µM (inactive) in assay [16]; 51.6 µM (inactive) in assay [17]; 47.2 µM (inactive) in assay [18]; 13.9 µM (inactive) in [19]. Moreover, the GI50 in [20] is 26.2 µM (inactive).
